Assay results taken from patent US8586565B2, “Kinase inhibitors useful for the treatment of myleoproliferative diseases and other proliferative diseases” (Deciphera Pharmaceuticals, LLC, priority 2006, dated 2013).

Assays:
[1] = target: T1, Abl(T315I) (Seq. ID no. 2) kinase (Homo sapiens, UniProt P00519, T315I); assay: Abl(T315I) kinase spectrophotometric coupled kinase assay; assay type: biochemical; conditions: for IC50: T315I mutant Abl kinase, 2 h preincubation, ATP 500 μM
T1 construct: His6 with TEV cleavage site ([…] leader) (N); purchased decode Genetics
T1 sequence (P00519 with tags, fused parts or gaps T315I): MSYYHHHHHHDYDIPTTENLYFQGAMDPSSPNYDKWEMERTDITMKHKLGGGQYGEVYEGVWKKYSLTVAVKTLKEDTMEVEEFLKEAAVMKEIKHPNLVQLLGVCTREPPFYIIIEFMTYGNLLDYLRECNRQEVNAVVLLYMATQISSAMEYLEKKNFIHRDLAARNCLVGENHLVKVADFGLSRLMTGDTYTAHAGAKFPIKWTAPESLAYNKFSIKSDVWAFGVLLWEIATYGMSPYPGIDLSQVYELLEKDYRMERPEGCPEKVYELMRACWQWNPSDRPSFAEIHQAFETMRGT
Experimental: (§1) Science (2000) 289, 1938-1942). In this assay, the oxidation of NADH (thus the decrease at A340nm) was continuously monitored spectrophometrically. […] (SEQ. […] The absorption at 340 nm was monitored continuously for 2 hours at 30° C. on Polarstar Optima plate reader (BMG). The reaction rate was calculated using the 1.0 to 2.0 h time frame. Percent inhibition was obtained by comparison of reaction rate with that of a control (i.e. with no test compound). IC50 values were calculated from a series of percent inhibition values determined at a range of inhibitor concentrations using software routines as implemented in the GraphPad Prism software package.

[2] = target: T2, Abl kinase (Seq. ID no. 1) (Homo sapiens, UniProt P00519); assay: Abl kinase (u-Abl) spectrophotometric coupled kinase assay; assay type: biochemical; conditions: for IC50: unphosphorylated-Abl kinase, 2 h preincubation, ATP 500 μM
T2 construct: His6 with TEV cleavage site ([…] leader) (N); purchased deCode Genetics
T2 sequence (P00519 with tags, fused parts or gaps): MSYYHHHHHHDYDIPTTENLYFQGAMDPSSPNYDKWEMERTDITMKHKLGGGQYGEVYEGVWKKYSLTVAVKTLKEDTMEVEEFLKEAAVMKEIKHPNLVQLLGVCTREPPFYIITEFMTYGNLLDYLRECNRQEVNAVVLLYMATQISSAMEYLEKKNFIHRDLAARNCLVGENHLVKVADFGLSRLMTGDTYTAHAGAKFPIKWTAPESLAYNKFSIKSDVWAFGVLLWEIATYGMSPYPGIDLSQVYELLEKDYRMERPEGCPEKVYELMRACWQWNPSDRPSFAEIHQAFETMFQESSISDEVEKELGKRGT
Experimental: as §1, with “Abl kinase (Seq. […] Activity of Abl kinase (Seq. […] Science” for “Science”, “A340 nm)” for “A340nm)”, “Test compounds were incubated with Abl kinase (Seq.” for “(SEQ.”

[3] = target: T3, pAbl kinase (Seq. ID no. 1) (Homo sapiens, UniProt P00519); assay: pAbl kinase spectrophotometric coupled kinase assay; assay type: biochemical; conditions: for IC50: phosphorylated-Abl kinase, 2 h preincubation, ATP 500 μM, read-out: p-Abl IC50
T3 construct: His6 with TEV cleavage site ([…] leader) (N); purchased deCode Genetics
T3 sequence (P00519 with tags, fused parts or gaps): T2 sequence (P00519 with tags, fused parts or gaps)
Experimental: pAbl Kinase Assay Activity of pAbl kinase (Seq. […] Science (2000) 289, 1938-1942). In this assay, the oxidation of NADH (thus the decrease at […]) was continuously monitored spectrophometrically. […] Test compounds were incubated with pAbl (SEQ. […] The absorption at 340 nm was monitored continuously for 2 hours at 30° C. on Polarstar Optima plate reader (BMG). The reaction rate was calculated using the 1.0 to 2.0 h time frame. Percent inhibition was obtained by comparison of reaction rate with that of a control (i.e. with no test compound). IC50 values were calculated from a series of percent inhibition values determined at a range of inhibitor concentrations using software routines as implemented in the GraphPad Prism software package. pAbl was obtained as a phosphorylated form of the enzyme used in the Abl assay (see above).

[4] = system: BaF3 cells transfected with bcr-Abl point mutant T315I; assay: Cell proliferation assay, BaF3 T315I bcr-abl; assay type: cell-based; conditions: Mus musculus, 72 hours, Cell Titer Blue
Experimental: (§2) Briefly, cells were grown in RPMI 1640 supplemented with 10% characterized fetal bovine serum (HyClone, Logan, Utah) at 37 degrees Celsius, 5% CO2, 95% humidity. Cells were allowed to expand until reaching 80% saturation at which point they were subcultured or harvested for assay use.
(§3) A serial dilution of test compound was dispensed into a 96 well black clear bottom plate (Corning, Corning, N.Y.). For each cell line, three thousand cells were added per well in complete growth medium. Plates were incubated for 72 hours at 37 degrees Celsius, 5% CO2, 95% humidity. At the end of the incubation period Cell Titer Blue (Promega, Madison, Wis.) was added to each well and an additional 4.5 hour incubation at 37 degrees Celsius, 5% CO2, 95% humidity was performed. Plates were then read on a BMG Fluostar Optima (BMG, Durham, N.C.) using an excitation of 544 nm and an emission of 612 nm. Data was analyzed using Prism software (Graphpad, San Diego, Calif.) to calculate IC50's.

[5] = system: BaF3 cells transfected with bcr-Abl point mutant M351T; assay: Cell proliferation assay, BaF3 M351T bcr-abl; assay type: cell-based; conditions: Mus musculus, 72 hours, Cell Titer Blue
Experimental: as §2, §3

[6] = system: BaF3 cells transfected with bcr-Abl point mutant E255K; assay: Cell proliferation assay, BaF3 E255K bcr-abl; assay type: cell-based; conditions: Mus musculus, 72 hours, Cell Titer Blue
Experimental: as §2, §3

[7] = system: BaF3 cells transfected with bcr-Abl point mutant Y253F; assay: Cell proliferation assay, BaF3 Y253F bcr-abl; assay type: cell-based; conditions: Mus musculus, 72 hours, Cell Titer Blue
Experimental: as §2, §3

[8] = system: BaF3 cells transfected with wild type bcr-Abl; assay: Cell proliferation assay, BaF3 wt bcr-abl; assay type: cell-based; conditions: Mus musculus, 72 hours, Cell Titer Blue
Experimental: as §2, §3

SMILES	IC50 [1] [nM]	times more potent vs. T315I mutant Abl kinase than Compound C ([1]; relative to Compound C) [times]	times more potent vs. u-Abl kinase than Compound C ([2]; relative to unsubstituted (R16=H) Compound C) [times]	IC50 [2] [nM]	IC50 [3] [nM]	times more potent vs. p-Abl kinase than Compound C ([3]; relative to Compound C) [times]	IC50 [4] [nM]	IC50 [5] [nM]	IC50 [6] [nM]	IC50 [7] [nM]	IC50 [8] [nM]	times more potent vs. p-Abl kinase than Compound A ([3]; relative to unsubstituted (R16=H) Compound A) [times]	times more potent vs. T315I mutant Abl kinase than Compound B ([1]; relative to Compound B) [times]	times more potent vs. u-Abl kinase than Compound B ([2]; relative to unsubstituted (R16=H) Compound B) [times]	times more potent vs. p-Abl kinase than Compound B ([3]; relative to Compound B) [times]
CNC(=O)c1cc(Oc2ccc(NC(=O)Nc3cc(C(C)(C)C)nn3-c3ccc4[nH]ncc4c3)c(F)c2)ccn1 [Example 4, 1-(3-tert-butyl-1-(1H-indazol-5-yl)-1H-pyrazol-5-yl)-3-(2-fluoro-4-(2-(methylcarbamoyl)pyridin-4-yloxy)phenyl)urea]	12	13	2.2	0.7	20	18	–	–	–	–	–	–	–	–	–
CNC(=O)c1cc(Oc2ccc(NC(=O)Nc3cc(C(C)(C)C)nn3-c3ccc4ncccc4c3)cc2C)ccn1 [Example 5, 1-(3-tert-butyl-1-(quinolin-6-yl)-1H-pyrazol-5-yl)-3-(3-methyl-4-(2-(methylcarbamoyl)pyridin-4-yloxy)phenyl)urea]	250	–	–	0.7	6	–	25	10	62	15	8	4	–	–	–
CC(C)c1cc(NC(=O)Nc2ccc(Oc3ccnc(C(N)=O)c3)cc2F)n(-c2ccc3ncccc3c2)n1 [Example 15, 1-(4-(2-carbamoylpyridin-4-yloxy)-2-fluorophenyl)-3-(3-isopropyl-1-(quinolin-6-yl)-1H-pyrazol-5-yl)urea]	56	–	–	1	35	–	25	13	238	86	11	–	18	8	> 14
